From patent US7432291B2, “Ether derivatives” (Hoffman-La Roche Inc., priority 2004, dated 2008) come the findings set out here.

Data set [1] deals with T1, HER2 (pY 1248) in Calu3 cells (Homo sapiens, UniProt P04626).
T1 construct: endogenous in cells; host or cells: Calu-3 (HTB-55)
Description: Inhibition of HER2 phosphorylation in Calu3 tumor cell line. Type of data set: cell-based. The settings on record: Calu-3, compound concentration 1 μM, 16 h incubation, percentage of the DMSO treated control, read-out: Percent inhibition of HER2-phosphorylation. Here is the method:
Inhibition of HER2 Phosphorylation in Calu3 Tumor Cell Line
2×10^5 Calu3 cells [Calu-3 (HTB-55) cells available from ATTC] per well were plated 12-well plate. After 4 days cells were starved for 16 h in DMEM/0.5% FCS/1% Glutamine. During this time cells were incubated with 1 μM of the compound. Afterwards cells were lysed in lyses buffer containing 1% Triton, 10% Glycerol, 1 mM EGTA, 1.5 mM MgCl2, 150 mM NaCl, 50 mM Hepes pH 7.5, 1 mM PMSF, 10 μg/mL Aprotinin and […] Orthovanadate. Cell lysates were analyzed on a SDS PAGE and after transfer to a nitrocellulose membrane detected with an antibody specifically recognizing the pY 1248 in HER2. Inhibition of HER2 phosphorylation is calculated as percentage of the DMSO treated control. This percentage was calculated according to the following formula: Inhibition in %=100−(Phosphorylated-HER2-Signal of Test Sample*100/Phosphorylated-HER2-Signal DMSO-control).

T1 sequence (P04626 23-1255): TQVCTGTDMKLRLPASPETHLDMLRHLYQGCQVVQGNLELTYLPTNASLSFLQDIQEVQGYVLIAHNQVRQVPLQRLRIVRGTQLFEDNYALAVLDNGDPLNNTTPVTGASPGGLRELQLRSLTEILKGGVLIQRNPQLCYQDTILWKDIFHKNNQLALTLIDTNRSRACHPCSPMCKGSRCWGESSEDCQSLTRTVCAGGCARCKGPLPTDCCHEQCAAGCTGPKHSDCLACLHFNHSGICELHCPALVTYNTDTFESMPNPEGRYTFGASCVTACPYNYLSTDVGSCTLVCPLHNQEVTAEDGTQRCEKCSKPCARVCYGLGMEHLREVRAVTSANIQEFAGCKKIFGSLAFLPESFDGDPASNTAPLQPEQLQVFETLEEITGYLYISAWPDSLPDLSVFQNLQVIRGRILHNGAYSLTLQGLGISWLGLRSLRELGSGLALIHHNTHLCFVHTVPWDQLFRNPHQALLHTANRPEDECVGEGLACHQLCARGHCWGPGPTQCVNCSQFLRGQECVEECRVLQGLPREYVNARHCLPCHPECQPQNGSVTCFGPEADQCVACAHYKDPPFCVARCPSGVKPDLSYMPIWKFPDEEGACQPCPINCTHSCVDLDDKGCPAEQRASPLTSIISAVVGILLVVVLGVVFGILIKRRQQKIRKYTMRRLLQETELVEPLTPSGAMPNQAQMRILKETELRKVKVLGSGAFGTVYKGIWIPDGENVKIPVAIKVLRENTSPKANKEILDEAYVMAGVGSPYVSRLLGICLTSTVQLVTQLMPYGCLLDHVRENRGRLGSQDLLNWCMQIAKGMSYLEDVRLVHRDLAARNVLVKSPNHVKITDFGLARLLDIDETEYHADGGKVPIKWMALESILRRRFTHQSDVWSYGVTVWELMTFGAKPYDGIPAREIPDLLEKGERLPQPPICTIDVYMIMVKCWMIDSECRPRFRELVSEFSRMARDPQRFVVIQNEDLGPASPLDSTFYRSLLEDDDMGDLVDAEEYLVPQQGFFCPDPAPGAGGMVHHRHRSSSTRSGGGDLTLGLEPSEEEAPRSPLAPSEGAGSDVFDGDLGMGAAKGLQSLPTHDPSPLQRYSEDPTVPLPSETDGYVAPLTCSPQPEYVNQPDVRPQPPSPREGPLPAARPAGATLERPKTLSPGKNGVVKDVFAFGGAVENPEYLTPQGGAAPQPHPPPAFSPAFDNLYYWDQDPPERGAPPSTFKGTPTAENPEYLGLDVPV

Usually melting point stands for the temperature, or range, at which the solid turns liquid. Consider `Cc1cc(OCc2coc(C=Cc3ccc(OC(F)F)cc3)n2)ccc1COCCn1ccnn1` [Example 7, 1-[2-(4-{2-[2-(4-Difluoromethoxy-phenyl)-vinyl]-oxazol-4-ylmethoxy}-2-methyl-benzyloxy)-ethyl]-1H-[1,2,3]triazole], for which the melting point fell in the range of 119 to 120 °C.
`Cc1cc(OCc2coc(C=Cc3ccc(SC(F)(F)F)cc3)n2)ccc1COCCn1ccnn1` [Example 8, 1-[2-(2-Methyl-4-{2-[2-(4-trifluoromethylsulfanyl-phenyl)-vinyl]-oxazol-4-ylmethoxy}-benzyloxy)-ethyl]-1H-[1,2,3]triazole] came in with a melting point of 102 °C.
The compound `Cc1cc(OCc2coc(C=Cc3ccc(OC(F)(F)F)cc3)n2)ccc1COCCn1ccnn1` [Example 9, 1-[2-(2-Methyl-4-{2-[2-(4-trifluoromethoxy-phenyl)-vinyl]-oxazol-4-ylmethoxy}-benzyloxy)-ethyl]-1H-[1,2,3]triazole] had a melting point of 84 to 85 °C.
A word on the inhibition: it is the share of the control response that was lost under treatment. Take `FC(F)Oc1ccc(/C=C/c2nc(COc3ccc(COCCn4ccnn4)cc3)co2)cc1` [example 1, 1-[2-(4-{2-[2-(E)-(4-Difluoromethoxy-phenyl)-vinyl]-oxazol-4-ylmethoxy}-benzyloxy)-ethyl]-1H-[1,2,3]triazole]: the inhibition at 1 µM in data set [1] amounted to 69.6%.
Consider `FC1(F)Oc2ccc(/C=C/c3nc(COc4ccc(COCCn5ccnn5)cc4)co3)cc2O1` [example 2, 1-[2-(4-{2-[2-(E)-(2,2-Difluoro-benzo[1,3]dioxol-5-yl)-vinyl]-oxazol-4-ylmethoxy}-benzyloxy)-ethyl]-1H-[1,2,3]triazole], for which the inhibition at 1 µM in data set [1] stood at 85.8%.
Still for that read-out and setting: with `FC(F)(F)Sc1ccc(/C=C/c2nc(COc3ccc(COCCn4ccnn4)cc3)co2)cc1` [example 3, 1-[2-(4-{2-[2-(E)-(4-Trifluoromethylsulfanyl-phenyl)-vinyl]-oxazol-4-ylmethoxy}-benzyloxy)-ethyl]-1H-[1,2,3]triazole] the figure was 73.4%; with `FC(F)(F)Oc1ccc(/C=C/c2nc(COc3ccc(COCCn4ccnn4)cc3)co2)cc1` [example 4, 1-[2-(4-{2-[2-(E)-(4-Trifluoromethoxy-phenyl)-vinyl]-oxazol-4-ylmethoxy}-benzyloxy)-ethyl]-1H-[1,2,3]triazole], 78.6%.
Consider `FC(F)(F)c1ccc(/C=C/c2nc(COc3ccc(COCCn4ccnn4)cc3)co2)cc1` [reference compound 2, 1-[2-(4-{2-[(E)-2-(4-Trifluoromethyl-phenyl)-vinyl]-oxazol-4-ylmethoxy}-benzyloxy)-ethyl]-1H-[1,2,3]triazole, reference compound], for which the inhibition at 1 µM in data set [1] came to 54%.
